Assay results reported in ChEMBL document CHEMBL2331144, “Synthesis and anticancer activity of analogues of phenstatin, with a phenothiazine A-ring, as a new class of microtubule-targeting agents” (Bioorg Med Chem Lett, 2013).

Assays:
NCI-H522 = assay: Growth inhibition of human NCI-H522 cells after 48 hrs by sulforhodamine B assay; type: functional; conditions: NCI-H522, 48 h
COLO 205 = assay: Growth inhibition of human COLO205 cells after 48 hrs by sulforhodamine B assay; type: functional; conditions: COLO 205, 48 h
NCI-H460 = assay: Growth inhibition of human NCI-H460 cells after 48 hrs by sulforhodamine B assay; type: functional; conditions: NCI-H460, 48 h
NCI-H23 = assay: Growth inhibition of human NCI-H23 cells after 48 hrs by sulforhodamine B assay; type: functional; conditions: NCI-H23, 48 h
HOP-62 = assay: Growth inhibition of human HOP62 cells after 48 hrs by sulforhodamine B assay; type: functional; conditions: HOP-62, 48 h
HOP-92 = assay: Growth inhibition of human HOP92 cells after 48 hrs by sulforhodamine B assay; type: functional; conditions: HOP-92, 48 h
A549 = assay: Growth inhibition of human A549/ATCC cells after 48 hrs by sulforhodamine B assay; type: functional; conditions: A549, 48 h
SR = assay: Growth inhibition of human SR cells after 48 hrs by sulforhodamine B assay; type: functional
RPMI-8226 = assay: Growth inhibition of human RPMI8226 cells after 48 hrs by sulforhodamine B assay; type: functional; conditions: RPMI-8226, 48 h
MOLT-4 = assay: Growth inhibition of human MOLT4 cells after 48 hrs by sulforhodamine B assay; type: functional; conditions: MOLT-4, 48 h
K562 = assay: Growth inhibition of human K562 cells after 48 hrs by sulforhodamine B assay; type: functional; conditions: K562, 48 h
HL-60(TB) = assay: Growth inhibition of human HL-60(TB) cells after 48 hrs by sulforhodamine B assay; type: functional; conditions: HL-60, 48 h
CCRF-CEM = assay: Growth inhibition of human CCRF-CEM cells after 48 hrs by sulforhodamine B assay; type: functional
[1] = Inhibition of sheep brain tubulin polymerization using DAPI by fluorimetry; set-up: species or system Ovis aries
Ovis aries = species on record: Ovis aries; assay: Inhibition of sheep brain tubulin polymerization at 100 uM using DAPI by fluorimetry
MDA-MB-468 = assay: Growth inhibition of human MDA-MB-468 cells after 48 hrs by sulforhodamine B assay; type: functional; conditions: MDA-MB-468, 48 h
BT-549 = assay: Growth inhibition of human BT549 cells after 48 hrs by sulforhodamine B assay; type: functional; conditions: BT-549, 48 h
[2] = Growth inhibition of human Hs 578T cells after 48 hrs by sulforhodamine B assay; type: functional
MDA-MB-231 = assay: Growth inhibition of human MDA-MB-231 cells after 48 hrs by sulforhodamine B assay; type: functional; conditions: MDA-MB-231, 48 h
MCF7 = assay: Growth inhibition of human MCF7 cells after 48 hrs by sulforhodamine B assay; type: functional; conditions: MCF7, 48 h
SF-539 = assay: Growth inhibition of human SF539 cells after 48 hrs by sulforhodamine B assay; type: functional; conditions: SF-539, 48 h
SNB-75 = assay: Growth inhibition of human SNB75 cells after 48 hrs by sulforhodamine B assay; type: functional; conditions: SNB-75, 48 h
SF-295 = assay: Growth inhibition of human SF295 cells after 48 hrs by sulforhodamine B assay; type: functional; conditions: SF-295, 48 h
SF-268 = assay: Growth inhibition of human SF268 cells after 48 hrs by sulforhodamine B assay; type: functional; conditions: SF-268, 48 h
PC-3 = assay: Growth inhibition of human PC3 cells after 48 hrs by sulforhodamine B assay; type: functional; conditions: PC-3, 48 h
TK-10 = assay: Growth inhibition of human TK10 cells after 48 hrs by sulforhodamine B assay; type: functional; conditions: TK-10, 48 h
DU-145 = assay: Growth inhibition of human DU145 cells after 48 hrs by sulforhodamine B assay; type: functional; conditions: DU-145, 48 h
ACHN = assay: Growth inhibition of human ACHN cells after 48 hrs by sulforhodamine B assay; type: functional
786-0 = assay: Growth inhibition of human 786-0 cells after 48 hrs by sulforhodamine B assay; type: functional; conditions: 786-0, 48 h
UO-31 = assay: Growth inhibition of human UO31 cells after 48 hrs by sulforhodamine B assay; type: functional; conditions: UO-31, 48 h
RXF 393 = assay: Growth inhibition of human RXF393 cells after 48 hrs by sulforhodamine B assay; type: functional; conditions: RXF 393, 48 h
SN12C = assay: Growth inhibition of human SN12C cells after 48 hrs by sulforhodamine B assay; type: functional
CAKI-1 = assay: Growth inhibition of human CAKI-1 cells after 48 hrs by sulforhodamine B assay; type: functional; conditions: CAKI-1, 48 h
A498 = assay: Growth inhibition of human A498 cells after 48 hrs by sulforhodamine B assay; type: functional; conditions: A498, 48 h
IGROV-1 = assay: Growth inhibition of human IGROV1 cells after 48 hrs by sulforhodamine B assay; type: functional; conditions: IGROV-1, 48 h
SK-OV-3 = assay: Growth inhibition of human SKOV3 cells after 48 hrs by sulforhodamine B assay; type: functional; conditions: SK-OV-3, 48 h
[3] = Growth inhibition of human NCI-ADR-RES cells after 48 hrs by sulforhodamine B assay; type: functional
OVCAR-8 = assay: Growth inhibition of human OVCAR8 cells after 48 hrs by sulforhodamine B assay; type: functional; conditions: OVCAR-8, 48 h
OVCAR-4 = assay: Growth inhibition of human OVCAR4 cells after 48 hrs by sulforhodamine B assay; type: functional; conditions: OVCAR-4, 48 h
OVCAR-3 = assay: Growth inhibition of human OVCAR3 cells after 48 hrs by sulforhodamine B assay; type: functional; conditions: OVCAR-3, 48 h
SK-MEL-5 = assay: Growth inhibition of human SK-MEL-5 cells after 48 hrs by sulforhodamine B assay; type: functional; conditions: SK-MEL-5, 48 h
UACC-257 = assay: Growth inhibition of human UACC257 cells after 48 hrs by sulforhodamine B assay; type: functional; conditions: UACC-257, 48 h
LOX IMVI = assay: Growth inhibition of human LOXIMVI cells after 48 hrs by sulforhodamine B assay; type: functional
UACC-62 = assay: Growth inhibition of human UACC62 cells after 48 hrs by sulforhodamine B assay; type: functional; conditions: UACC-62, 48 h
SK-MEL-28 = assay: Growth inhibition of human SK-MEL-28 cells after 48 hrs by sulforhodamine B assay; type: functional; conditions: SK-MEL-28, 48 h
SK-MEL-2 = assay: Growth inhibition of human SK-MEL-2 cells after 48 hrs by sulforhodamine B assay; type: functional; conditions: SK-MEL-2, 48 h
MDA-MB-435 = assay: Growth inhibition of human MDA-MB-435 cells after 48 hrs by sulforhodamine B assay; type: functional; conditions: MDA-MB-435, 48 h
M14 = assay: Growth inhibition of human M14 cells after 48 hrs by sulforhodamine B assay; type: functional; conditions: M14, 48 h
SW-620 = assay: Growth inhibition of human SW620 cells after 48 hrs by sulforhodamine B assay; type: functional; conditions: SW-620, 48 h
KM12 = assay: Growth inhibition of human KM12 cells after 48 hrs by sulforhodamine B assay; type: functional; conditions: KM12, 48 h
HT-29 = assay: Growth inhibition of human HT-29 cells after 48 hrs by sulforhodamine B assay; type: functional; conditions: HT-29, 48 h
HCT-116 = assay: Growth inhibition of human HCT116 cells after 48 hrs by sulforhodamine B assay; type: functional; conditions: HCT-116, 48 h
HCT-15 = assay: Growth inhibition of human HCT15 cells after 48 hrs by sulforhodamine B assay; type: functional; conditions: HCT-15, 48 h
[4] = Growth inhibition of human HCC2998 cells after 48 hrs by sulforhodamine B assay; type: functional; conditions: HCC 2998, 48 h

COc1ccc(C(=O)N2c3ccccc3Sc3ccccc32)cc1N
GI50 (NCI-H522): 0.035 µM
GI50 (COLO 205): 0.193 µM
GI50 (NCI-H460): 0.289 µM
GI50 (NCI-H23): 0.437 µM
GI50 (HOP-62): 0.226 µM
GI50 (HOP-92): 0.277 µM
GI50 (A549): 0.187 µM
GI50 (SR): 0.03 µM
GI50 (RPMI-8226): 0.328 µM
GI50 (MOLT-4): 0.38 µM
GI50 (K562): 0.04 µM
GI50 (HL-60(TB)): 0.245 µM
GI50 (CCRF-CEM): 0.268 µM
IC50 [1]: 11.8 µM
inhibition (Ovis aries): 99%
GI50 (MDA-MB-468): 0.05 µM
GI50 (BT-549): 0.877 µM
GI50 [2]: 0.424 µM
GI50 (MDA-MB-231): 0.31 µM
GI50 (MCF7): 0.093 µM
GI50 (SF-539): 0.164 µM
GI50 (SNB-75): 0.257 µM
GI50 (SF-295): 0.071 µM
GI50 (SF-268): 0.958 µM
GI50 (PC-3): 0.31 µM
GI50 (TK-10): 0.575 µM
GI50 (DU-145): 0.291 µM
GI50 (ACHN): 0.472 µM
GI50 (786-0): 0.524 µM
GI50 (UO-31): 0.65 µM
GI50 (RXF 393): 0.13 µM
GI50 (SN12C): 0.798 µM
GI50 (CAKI-1): 0.29 µM
GI50 (A498): 0.129 µM
GI50 (IGROV-1): 0.721 µM
GI50 (SK-OV-3): 0.244 µM
GI50 [3]: 0.08 µM
GI50 (OVCAR-8): 0.366 µM
GI50 (OVCAR-4): 1.21 µM
GI50 (OVCAR-3): 0.101 µM
GI50 (SK-MEL-5): 0.053 µM
GI50 (UACC-257): 1.94 µM
GI50 (LOX IMVI): 0.881 µM
GI50 (UACC-62): 0.127 µM
GI50 (SK-MEL-28): 0.407 µM
GI50 (SK-MEL-2): 0.134 µM
GI50 (MDA-MB-435): 0.029 µM
GI50 (M14): 0.09 µM
GI50 (SW-620): 0.09 µM
GI50 (KM12): 0.097 µM
GI50 (HT-29): 0.151 µM
GI50 (HCT-116): 0.166 µM
GI50 (HCT-15): 0.073 µM
GI50 [4]: 0.683 µM
